# Measurements: patent US7754709B2 (Solvay Pharmaceuticals BV, priority 2003, dated 2010)
# Assays:
# Type in all cases: cell-based
# [1] = target: T1, 17β-hydroxysteroid dehydrogenase type 1 (Homo sapiens, UniProt P14061); assay: Inhibition of 17β-HSD type 1 in MCF-7 cells stably expressing the isoenzyme (HPLC, tritium labeled estrone); settings: 2 nM estrone, read-out: % Inhibition of the 17β-HSD enzyme type 1 (HSD1); for inhibition at 1 µM: MCF7, 1 μM compound; for inhibition at 10 µM: MCF7, 10 μM compound
# T1 construct: expressed in transfected cells; host or cells: MCF-7
# T1 sequence (P14061 1-328): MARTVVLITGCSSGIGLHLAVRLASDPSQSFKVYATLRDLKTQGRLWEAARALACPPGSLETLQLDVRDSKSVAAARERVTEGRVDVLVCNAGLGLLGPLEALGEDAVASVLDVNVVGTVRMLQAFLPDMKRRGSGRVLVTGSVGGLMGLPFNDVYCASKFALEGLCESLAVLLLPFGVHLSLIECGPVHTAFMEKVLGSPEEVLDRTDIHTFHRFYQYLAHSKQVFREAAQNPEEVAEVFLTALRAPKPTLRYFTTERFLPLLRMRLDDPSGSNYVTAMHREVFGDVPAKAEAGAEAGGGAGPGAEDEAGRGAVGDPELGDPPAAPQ
# Excerpt: (§1) Biological Testing Materials and Methods 1. Inhibition of the 17β-hydroxysteroid dehydrogenase type 1, type 2 and type 3 enzyme
# (§2) The compounds were screened in respect of 17β-HSD enzyme activity in vitro on established M CF-7 cell lines, each stably expressing one of the respective 17β-HSD isoenzymes. The interconversion of substrate by each isoenzyme and the 17β-HSD inhibiting activity of chemical compounds in these cell lines were detected by HPLC system.
# (§3) Varying amounts of the test compounds were incubated in the growth medium of the 17β-HSD expressing cells together tritium labeled substrate (2 nM estrone for 17β-HSD type 1; 2 nM estradiol for 17β-HSD type 2; and 2 nM androstenedione for 17β-HSD type 3). The medium samples were removed after exact incubation time and the reaction is stopped by trichloroacetic acid (TCA). The samples were analyzed by HPLC-coupled flow scintillation analysis.
# (§4) For each enzyme type, the HSD-inhibiting activity of an individual test compound was calculated by comparing the conversion of a control sample without any test compound (referred to as “Negative Control”) to the (reduced) conversion of the test sample containing the particular compound to be tested (referred to as “Test Sample”).
# (§5) Two concentrations of each compound were used. The number of the compound refers to the numbers indicated in the Experimental Section.
# [2] = target: T2, 17β-hydroxysteroid dehydrogenase type 3 (Homo sapiens, UniProt P37058); assay: Inhibition of 17β-HSD type 3 in MCF-7 cells stably expressing the isoenzyme (HPLC, tritium labeled androstenedione); settings: 2 nM androstenedione, read-out: % Inhibition of the 17β-HSD enzyme type 3 (HSD3); for inhibition at 1 µM: MCF7, 1 μM compound; for inhibition at 10 µM: MCF7, 10 μM compound
# T2 construct: expressed in transfected cells; host or cells: MCF-7
# T2 sequence (P37058 1-310): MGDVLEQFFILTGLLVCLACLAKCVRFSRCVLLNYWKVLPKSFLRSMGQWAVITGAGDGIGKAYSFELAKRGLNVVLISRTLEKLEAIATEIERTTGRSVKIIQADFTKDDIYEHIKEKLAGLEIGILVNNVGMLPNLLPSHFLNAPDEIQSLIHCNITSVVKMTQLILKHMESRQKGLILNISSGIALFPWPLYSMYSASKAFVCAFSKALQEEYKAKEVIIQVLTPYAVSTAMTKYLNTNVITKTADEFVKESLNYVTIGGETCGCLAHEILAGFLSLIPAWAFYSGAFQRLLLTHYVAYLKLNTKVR
# Excerpt: as §1, §2, §3, §4, §5
# [3] = target: T3, 17β-hydroxysteroid dehydrogenase type 2 (Homo sapiens, UniProt P37059); assay: Inhibition of 17β-HSD type 2 in MCF-7 cells stably expressing the isoenzyme (HPLC, tritium labeled estradiol); settings: 2 nM estradiol, read-out: % Inhibition of the 17β-HSD enzyme type 2 (HSD2); for inhibition at 1 µM: MCF7, 1 μM compound; for inhibition at 10 µM: MCF7, 10 μM compound
# T3 construct: expressed in transfected cells; host or cells: MCF-7
# T3 sequence (P37059 1-387): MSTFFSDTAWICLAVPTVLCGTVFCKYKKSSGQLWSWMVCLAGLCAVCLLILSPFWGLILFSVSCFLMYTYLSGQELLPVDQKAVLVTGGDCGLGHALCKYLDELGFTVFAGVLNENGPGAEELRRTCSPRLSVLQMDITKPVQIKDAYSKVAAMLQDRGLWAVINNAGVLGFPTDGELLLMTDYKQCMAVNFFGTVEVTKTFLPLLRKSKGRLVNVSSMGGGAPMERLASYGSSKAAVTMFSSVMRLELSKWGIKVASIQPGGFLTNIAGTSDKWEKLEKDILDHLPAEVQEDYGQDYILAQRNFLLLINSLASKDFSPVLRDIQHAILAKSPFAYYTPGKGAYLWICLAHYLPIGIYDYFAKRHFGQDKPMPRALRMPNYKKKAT
# Excerpt: as §1, §2, §3, §4, §5
SMILES,inhibition at 1 µM [1] [%],inhibition at 10 µM [1] [%],inhibition at 1 µM [2] [%],inhibition at 10 µM [2] [%],inhibition at 1 µM [3] [%],inhibition at 10 µM [3] [%]
"O=c1c2c3c(sc2nc2ccccn12)CCCC3 [Compound 25, 1,2,3,4-Tetrahydro-12H-[1]benzothieno[2,3-d]pyrido[1,2-a]pyrimidin-12-one]",6.2,8.7,-3.2,7.9,14,33.6
"O=C1CCCc2c1sc1nc3ccccn3c(=O)c21 [Compound 26, 2,3-Dihydro-12H-[l]benzothieno[2,3-d]pyrido[1,2-a]pyrimidin-4, 12(1H)-dione]",6.4,-0.8,-2.1,0.3,15.1,16.4
"CC1CCc2c(sc3nc4n(c(=O)c23)CCCCC4)C1 (stereo not drawn) [Compound 27, 3-Methyl-2,3,4,7,8,9, 10,11-octahydro-[1]benzothieno[2′,3′: 4,5]pyrimido-[1,2-a]azepin-13(1H)-one]",11.4,25.6,22.9,24.9,5.3,3.2
"CC1CCc2c(sc3nc4n(c(=O)c23)CCCCC4)C1=O (stereo not drawn) [Compound 28, 2,3,8,9,10,11-Hexahydro-3-methyl-[1]benzothieno[2′,3′: 4,5]pyrimido[1,2-a]azepin-4,13(1H,7H)-dione]",14.3,15.3,7.8,9.5,18.2,18.7
"CC(C)(C)C1CCc2c(sc3nc4n(c(=O)c23)CCCCC4)C1 (stereo not drawn) [Compound 29, 3-t-Butyl-2,3,4,7,8,9,10,11-octahydro-[1]benzothieno[2′,3′: 4,5]pyrimido-[1,2-a]azepin-13(1H)-one]",-1,1.3,14.9,25.8,13.1,10.1
"O=CC1=C([S+]([O-])c2ccccc2)c2sc3nc4n(c(=O)c3c2CC1)CCCCC4 (stereo not drawn) [Compound 30, 1,2,7,8,9,10,11,13-Octahydro-13-oxo-4-(phenylsulfinyl)-[1]benzothieno[2′,3′: 4,5]-pyrimido-[1,2-a]azepine-3-carbaldehyde]",23.1,49,11.1,31.2,12.8,24.8
"O=c1c2c3c(sc2nc2n1CCC(CO)CC2)CCCC3 (stereo not drawn) [Compound 35, 9-(Hydroxymethyl)-2,3,4,7,8,9,10,11-octahydro-[1]benzothieno[2′,3′: 4,5]pyrimido[1,2-a]azepin-13(1H)-one]",4.8,22.4,16.2,23.4,15.8,27.7

# Second part, the compound after the results:
inhibition at 1 µM [1] [%],inhibition at 10 µM [1] [%],inhibition at 1 µM [2] [%],inhibition at 10 µM [2] [%],inhibition at 1 µM [3] [%],inhibition at 10 µM [3] [%],SMILES
10.9,33.5,20,87.3,13.1,32.9,"CCOC(=O)C1CCc2nc3sc4c(c3c(=O)n2CC1)CCC(C=O)=C4Cl (stereo not drawn) [Compound 21, 4-Chloro-3-formyl-1,2,7,8,9,10,11,13-octahydro-13-oxo-[1]benzothieno[2′,3′: 4,5]pyrimido[1,2-a]azepine-9-carboxylic acid ethyl ester]"
24.3,46.5,25.5,100,6.8,16.1,"CCCSC1=C(C=O)CCc2c1sc1nc3n(c(=O)c21)CCC(C(=O)OCC)CC3 (stereo not drawn) [Compound 22, 3-Formyl-1,2,7,8,9,10, 11,13-octahydro-13-oxo-4-(propylthio)-[1]benzothieno [2′,3′: 4,5]pyrimido[1,2-a]azepine-9-carboxylic acid ethyl ester]"
17.4,64.7,19.5,89.5,9.7,17.7,"CCCSC1=C(C=O)CCc2c1sc1nc3n(c(=O)c21)CCC(C(=O)OC)CC3 (stereo not drawn) [Compound 23, 3-Formyl-1,2,7,8,9,10,11,13-octahydro-13-oxo-4-(propylthio)-[l]benzothieno[2′,3′: 4,5] pyrimido[1,2-a]azepine-9-carboxylic acid methyl ester]"
24.9,32.3,18,59.6,3.1,19.3,"COC(=O)C1CCc2nc3sc4c(c3c(=O)n2CC1)CCC(C=O)=C4OC (stereo not drawn) [Compound 24, 3-Formyl-4-methoxy-1,2,7,8,9,10,11,13-octahydro-13-oxo-[1]benzothieno[2′,3′: 4,5]pyrimido [1,2-a]azepine-9-carboxylic acid methyl ester]"
2.1,6.8,-6.4,-3.9,-0.2,9.3,"O=C(O)C1=C(Cl)c2sc3nc4n(c(=O)c3c2CC1)CCCCC4 [Compound 31, 4-Chloro-1,2,7,8,9, 10,11,13-octahydro-13-oxo-[1]benzothieno[2′,3′: 4,5]pyrimido[1,2-a]azepine-3-carboxylic acid]"
